pIC50: −log10 of the molar value. Several values for one entry are separate records, joined by “and”; a condition that tells them apart may be missing. Equal values may be shown once.
Columns and labels:
[1] = test system: procoagulant activity of Echis carinatus venom (citrated bovine plasma); assay: plasma clotting assay; type: biochemical; parameters: key: max of first derivative of A595 clot curve (max clotting velocity); conditions: Echis carinatus venom 100 ng, independent repeats
Method: (§1) We used a previously developed plasma clotting assay[35] to measure venom-induced coagulation. Briefly, 100 ng of each venom was incubated at 37 °C for 30 min in the presence or absence of inhibitors (150 µM to 150 nM final concentrations). The final reaction consisted of 10 µl venom ± inhibitors in PBS, 20 µl 20 mM CaCl2, and 20 µl citrated bovine plasma (VWR). The samples were pipetted in triplicate into 384-well plates, and absorbance monitored at 595 nm for 2 h at 25 °C on an Omega FLUOstar instrument. We calculated the maximum clotting velocity of each of the curves as per clot waveform analysis, by calculating the maximum of the first derivative. The means of at least three independent experimental runs for each condition were plotted at each inhibitor concentration with SEMs.

[2] = test system: Echis carinatus venom SVMP activity; assay: fluorogenic SVMP assay; type: biochemical; conditions: independent repeats
Method: (§2) The SVMP assay measuring metalloproteinase activity and the plasma assay measuring coagulation in the presence or absence of venoms and inhibitors were performed as previously described. The SVMP assay kinetically measured cleavage of a quenched fluorogenic substrate (ES010, R&D Biosystems) by venom in the presence or absence of inhibitors.
(§3) Briefly, 10 µl of the substrate (supplied as a 6.2 mM stock) was used per 5 ml reaction buffer (150 mM NaCl, 50 mM Tris-Cl pH 7.5). Reactions consisted of 10 µl of venom ± inhibitors in PBS and 90 µl of substrate. Venoms were used at 1 µg/reaction and final inhibitor concentrations ranged from 150 µM to 150 nM. Samples were preincubated for 30 min at 37 °C and pipetted in triplicate into 384-well plates (Greiner). Thereafter, data was collected on an Omega FLUOstar (BMG Labtech) instrument at an excitation wavelength of 320 nm and emission wavelength of 405 nm at 25 °C for 1 h. The areas under the curve (AUCs) in the 0–40 min interval were calculated for each sample using MARS data analysis software v3.31 (BMG Labtech); this time point was chosen as the time where all fluorescence curves had reached a plateau (maximum fluorescence). For comparing venom-only samples, the means of at least three independent experimental runs for each condition, expressed as AUCs (n ≥ 3), were plotted at each inhibitor concentration with standard error of the mean (SEM). To determine inhibitor efficacy, the AUCs for each of the samples that consisted of venom + inhibitors were transformed and expressed as percentages of the venom-only sample (where the venom was 100%). The negative control (PBS-only) was also expressed relative to the venom, and the variation in background was presented as an interval delineated by the lowest and highest values in the PBS-only samples across concentrations and inhibitors for a specific venom.

[3] = test system: Bothrops asper venom SVMP activity; assay: fluorogenic SVMP assay; type: biochemical; conditions: independent repeats
Method: as §2, §3

[4] = test system: Echis ocellatus venom SVMP activity; assay: fluorogenic SVMP assay; type: biochemical; conditions: independent repeats
Method: as §2, §3

[5] = test system: Bitis arietans venom SVMP activity; assay: fluorogenic SVMP assay; type: biochemical; conditions: independent repeats
Method: as §2, §3

[6] = test system: coagulopathic activity of Daboia russelii venom (citrated bovine plasma); assay: plasma clotting assay; type: biochemical; parameters: key to maximum clotting velocity: max of first derivative of A595 clot curve (max clotting velocity); conditions: for maximum clotting velocity: Daboia russelii venom 100 ng, independent repeats
Method: as §1

[7] = test system: E. ocellatus venom; conditions: cited from earlier work
[8] = test system: procoagulant activity of Echis ocellatus venom (citrated bovine plasma); assay: plasma clotting assay; type: biochemical; conditions: Echis ocellatus venom 100 ng, independent repeats
Method: as §1

[9] = test system: procoagulant activity of Bothrops asper venom (citrated bovine plasma); assay: plasma clotting assay; type: biochemical; conditions: Bothrops asper venom 100 ng, independent repeats
Method: as §1

[10] = test system: procoagulant activity of viper venoms (citrated bovine plasma); assay: plasma clotting assay, viper venoms overall; type: biochemical
Method: as §1

[11] = test system: SVMP bioactivity of the four active venoms (E. ocellatus, E. carinatus, B. asper, B. arietans); assay: in vitro kinetic fluorogenic SVMP assay, viper venoms overall; type: biochemical
Method: as §2, §3

[12] = test system: SVSP activity of viper venoms; assay: chromogenic SVSP assay, viper venoms overall; type: biochemical
Method: (§4) SVSP activity was measured using a chromogenic substrate (S-2288, Cambridge Bioscience). Reactions consisted of 15 µl of venom ± inhibitors in PBS, 15 µl of assay buffer (100 mM Tris-Cl pH 8.5, 100 mM NaCl) and 15 µl of 6 mM substrate. A positive venom-only control, a negative control containing 15 µl of PBS and a drug-only control (where applicable) were also included. The final substrate concentration was 2 mM and venoms were used at 1 µg/reaction. When testing inhibitors, these were preincubated with the venoms for 30 min at 37 °C with concentrations ranging from 150 µM to 150 nM (tenfold dilutions). The samples were pipetted in triplicate into 384-well plates (Greiner) and absorbance at 405 nm was monitored kinetically for ~30 min on an Omega FLUOstar instrument (BMG Labtech). Given the linearity of the resulting slopes, negative control readings (PBS) were subtracted from each reading and the rate of substrate consumption calculated by measuring the slope between 0 and 5 min. The mean rates (expressed as ΔAbs/time/µg venom) of at least three independent experimental runs for each condition (n ≥ 3) were plotted at each inhibitor concentration with SEMs using Prism v8 software (GraphPad).

[13] = cited from earlier work
[14] = test system: plasma coagulation; type: biochemical, bovine; conditions: no venom; high doses (150 µM)
Method: as §1

[15] = test system: E. ocellatus venom; assay: in vivo preincubation model of envenoming (i.v.); parameters: species or system CD-1 mice
Method: All animal experiments were conducted using protocols approved by the Animal Welfare and Ethical Review Boards of the Liverpool School of Tropical Medicine and the University of Liverpool, and performed in specific pathogen-free conditions under licensed approval (PPL #4003718 and #P5846F90) of the UK Home Office and in accordance with the Animal [Scientific Procedures] Act 1986 and institutional guidance on animal care. All experimental animals (18–20 g [4–5 weeks old], male, CD-1 mice, Charles River, UK) were housed in groups of five with environmental enrichment, water and food ad libitum and their health monitored daily during acclimatization. The experimental design was based upon 3R-refined WHO-recommended protocols[28],[41], with animals randomized and observers being blinded to the experimental condition. The median lethal doses (venom LD50) used for E. ocellatus (Nigeria), E. carinatus (India), B. asper (Costa Rica), D. russelii (Sri Lanka) and B. arietans (Nigeria) venoms were previously determined[25],[41],[44],[45].
All experimental doses were prepared to a volume of 200 µl in PBS and incubated at 37 °C for 30 min prior to their intravenous injection via the tail vein. Animals were monitored for 6 h, and euthanized via rising concentrations of CO2 upon observation of previously defined humane end points that are predicators of lethality (e.g., seizure, pulmonary distress, paralysis, hemorrhage)[28]. Deaths, time of death, and survivors were recorded; where death/time of death actually represents the implementation of euthanasia based on defined humane end points.
For all experimental animals described above, blood samples were collected via cardiac puncture immediately post-euthanasia. Plasma was separated by centrifugation at 400 × g for 10 min and stored at −80 °C. We assessed the levels of thrombin-antithrombin complexes (TAT) and soluble thrombomodulin using mouse ELISA Kits (ab137994 and ab209880, Abcam), following the manufacturer’s protocol. All available plasma samples (some were unobtainable via cardiac puncture due to extensive internal hemorrhage) were assessed if the time of death within the group varied, whereas three samples were randomly chosen if the time of death was the same (e.g., either very rapid death within 2 min, or survival until the end of the experiment [360 min or 24 h]). The resulting data was plotted as the median of duplicate measurements for each animal and is presented with standard deviations (SDs).

[16] = test system: Bitis arietans venom SVSP activity; assay: chromogenic SVSP assay; type: biochemical; conditions: independent repeats
Method: as §4

[17] = test system: Echis carinatus venom SVSP activity; assay: chromogenic SVSP assay; type: biochemical; conditions: independent repeats
Method: as §4

[18] = test system: Bothrops asper venom SVSP activity; assay: chromogenic SVSP assay; type: biochemical; conditions: independent repeats
Method: as §4

[19] = test system: Echis ocellatus venom SVSP activity; assay: chromogenic SVSP assay; type: biochemical; conditions: nafamostat 150 nM, independent repeats
Method: as §4

Compound: O=S(=O)(O)CC(S)CS (stereo not drawn) [DMPS, 2,3-dimercapto-1-propanesulfonic acid]
- maximum clotting velocity ([1]; inhibitor 15 µM): 0.04133 and 0.038 and 0.05133
- maximum clotting velocity ([1]; inhibitor 150 µM): 0.033 and 0.04 and 0.03533
- SVMP activity, percentage of the venom-only sample ([2]; inhibitor 15 µM): 24.5956% and 26.5777% and 20.6819%
- SVMP activity, percentage of the venom-only sample ([2]; inhibitor 150 µM): 13.0224% and 14.752% and 12.5581%
- SVMP activity, percentage of the venom-only sample ([3]; inhibitor 15 µM): 34.6541% and 41.4523% and 39.2938%
- SVMP activity, percentage of the venom-only sample ([3]; inhibitor 150 µM): 33.142% and 30.6392% and 28.5849%
- SVMP activity, percentage of the venom-only sample ([4]; inhibitor 15 µM): 18.6328% and 21.5132% and 17.5016%
- SVMP activity, percentage of the venom-only sample ([4]; inhibitor 150 µM): 15.3569% and 14.8369% and 16.006%
- SVMP activity, percentage of the venom-only sample ([5]; inhibitor 15 µM): 22.3961% and 20.1207% and 18.6801%
- SVMP activity, percentage of the venom-only sample ([5]; inhibitor 150 µM): 20.1452% and 19.0476% and 17.6656%
- neutralizing the procoagulant activity ([6]; D. russelii venom): ineffective
- maximum clotting velocity ([6]; inhibitor 15 µM): 0.1186 and 0.1081 and 0.1102
- maximum clotting velocity ([6]; inhibitor 150 µM): 0.07853 and 0.08841 and 0.07869
- survival time of individual animals (Kaplan-Meier source data) ([7]; 90 µg E. ocellatus venom i.p., 120 µg DMPS i.p. 15 mins later, D + AV also 168 µl EchiTAbG i.v. 1 hr after venom, 1 = death (=), 0 = survived (>=), ref Albulescu et al.1): 12.6 h and 21.51 h and 15.51 h and ≥ 24 h
- duration for which lethality was prevented ([7]; same preclinical model, E. ocellatus): ~ 8 h
- maximum clotting velocity ([8]; inhibitor 15 µM): 0.09233 and 0.098 and 0.085
- maximum clotting velocity ([8]; inhibitor 150 µM): 0.03733 and 0.04867 and 0.039
- maximum clotting velocity ([9]; inhibitor 15 µM): 0.04261 and 0.04406 and 0.05475
- maximum clotting velocity ([9]; inhibitor 150 µM): 0.03159 and 0.02725 and 0.0282
- neutralizing the procoagulant activities ([10]; E. ocellatus, E. carinatus and B. asper venoms, highest dose 150 µM): effective
- pIC50 ([10]; range across all venoms, lower end of dimercaprol and marimastat ranges given as < 0.15, read-out: IC50, inhibition of procoagulant venom activity): 4.59 to 6.10
- lowest concentration generally effective / required to fully inhibit SVMP activities ([11]; across the active venoms): 15 µM
- pIC50 ([11]; range across the active venoms, read-out: IC50s, inhibition of venom SVMP activity): 5.38 to 6.54

Compound: N=C(N)c1ccc2cc(OC(=O)c3ccc(N=C(N)N)cc3)ccc2c1 [nafamostat]
- inhibition of SVSP activity ([12]; highest doses 150 and 15 µM, irrespective of venom): completely inhibiting SVSP activity
- pIC50 ([12]; range across venoms, read-out: IC50s, inhibition of venom SVSP activity): 5.97 to 6.92
- half-life [13]: ~ 8 min
- effect on normal plasma clotting [14]: dramatically inhibits plasma coagulation
- protection against venom-induced lethality ([15]; 45 µg E. ocellatus venom preincubated with 60 µg of each drug, i.v., 6 h): no evident efficacy
- thrombin-antithrombin (TAT) levels, range in group ([15]; plasma after euthanasia, E. ocellatus venom + 60 µg of each drug, venom-only mean 1127.3, normal mice 10.2–15.9): 543.9 to 859.1 ng/mL
- SVSP activity, rate of substrate consumption ([16]; nafamostat 150 nM): 0.0636 ΔAbs/time/µg venom and 0.06929 ΔAbs/time/µg venom and 0.08741 ΔAbs/time/µg venom
- SVSP activity, rate of substrate consumption ([16]; nafamostat 15 uM): 0.0014 ΔAbs/time/µg venom and 0.001071 ΔAbs/time/µg venom and 0.001786 ΔAbs/time/µg venom
- SVSP activity, rate of substrate consumption ([17]; nafamostat 150 nM): 0.08494 ΔAbs/time/µg venom and 0.09756 ΔAbs/time/µg venom and 0.1079 ΔAbs/time/µg venom
- SVSP activity, rate of substrate consumption ([17]; nafamostat 15 uM): 0.001726 ΔAbs/time/µg venom and 0.002857 ΔAbs/time/µg venom and 0.003095 ΔAbs/time/µg venom
- SVSP activity, rate of substrate consumption ([18]; nafamostat 150 nM): 0.03413 ΔAbs/time/µg venom and 0.03851 ΔAbs/time/µg venom and 0.04036 ΔAbs/time/µg venom
- SVSP activity, rate of substrate consumption ([18]; nafamostat 15 uM): 0.003733 ΔAbs/time/µg venom and 0.002738 ΔAbs/time/µg venom and 0.004018 ΔAbs/time/µg venom
- SVSP activity, rate of substrate consumption [19]: 0.01667 ΔAbs/time/µg venom and 0.02387 ΔAbs/time/µg venom and 0.02696 ΔAbs/time/µg venom

From paper PMC7738508, “A therapeutic combination of two small molecule toxin inhibitors provides broad preclinical efficacy against viper snakebite” (Nature Communications, 2020)
